Reference: patent US20120107239A1, “Precursor of Molecular Probe for Pancreatic Islet Imaging and Use of the Same” (priority 2009, published 2012)

Assays:
[1] = molecular target: SUR1 (Homo sapiens, UniProt Q09428); details: compared with nateglinide; cited from earlier work
[2] = molecular target: T1, SU receptor (Mus musculus, UniProt B2RUS7); assay: SU receptor binding experiment ([3H]-glibenclamide displacement on dispersed pancreatic islet cells); parameters: species or system mice
T1 construct: the pancreatic islets isolated from the mice were dispersed into single cells; from tissue; host or cells: single cells dispersed from isolated mouse pancreatic islets
T1 sequence (B2RUS7 1-1588): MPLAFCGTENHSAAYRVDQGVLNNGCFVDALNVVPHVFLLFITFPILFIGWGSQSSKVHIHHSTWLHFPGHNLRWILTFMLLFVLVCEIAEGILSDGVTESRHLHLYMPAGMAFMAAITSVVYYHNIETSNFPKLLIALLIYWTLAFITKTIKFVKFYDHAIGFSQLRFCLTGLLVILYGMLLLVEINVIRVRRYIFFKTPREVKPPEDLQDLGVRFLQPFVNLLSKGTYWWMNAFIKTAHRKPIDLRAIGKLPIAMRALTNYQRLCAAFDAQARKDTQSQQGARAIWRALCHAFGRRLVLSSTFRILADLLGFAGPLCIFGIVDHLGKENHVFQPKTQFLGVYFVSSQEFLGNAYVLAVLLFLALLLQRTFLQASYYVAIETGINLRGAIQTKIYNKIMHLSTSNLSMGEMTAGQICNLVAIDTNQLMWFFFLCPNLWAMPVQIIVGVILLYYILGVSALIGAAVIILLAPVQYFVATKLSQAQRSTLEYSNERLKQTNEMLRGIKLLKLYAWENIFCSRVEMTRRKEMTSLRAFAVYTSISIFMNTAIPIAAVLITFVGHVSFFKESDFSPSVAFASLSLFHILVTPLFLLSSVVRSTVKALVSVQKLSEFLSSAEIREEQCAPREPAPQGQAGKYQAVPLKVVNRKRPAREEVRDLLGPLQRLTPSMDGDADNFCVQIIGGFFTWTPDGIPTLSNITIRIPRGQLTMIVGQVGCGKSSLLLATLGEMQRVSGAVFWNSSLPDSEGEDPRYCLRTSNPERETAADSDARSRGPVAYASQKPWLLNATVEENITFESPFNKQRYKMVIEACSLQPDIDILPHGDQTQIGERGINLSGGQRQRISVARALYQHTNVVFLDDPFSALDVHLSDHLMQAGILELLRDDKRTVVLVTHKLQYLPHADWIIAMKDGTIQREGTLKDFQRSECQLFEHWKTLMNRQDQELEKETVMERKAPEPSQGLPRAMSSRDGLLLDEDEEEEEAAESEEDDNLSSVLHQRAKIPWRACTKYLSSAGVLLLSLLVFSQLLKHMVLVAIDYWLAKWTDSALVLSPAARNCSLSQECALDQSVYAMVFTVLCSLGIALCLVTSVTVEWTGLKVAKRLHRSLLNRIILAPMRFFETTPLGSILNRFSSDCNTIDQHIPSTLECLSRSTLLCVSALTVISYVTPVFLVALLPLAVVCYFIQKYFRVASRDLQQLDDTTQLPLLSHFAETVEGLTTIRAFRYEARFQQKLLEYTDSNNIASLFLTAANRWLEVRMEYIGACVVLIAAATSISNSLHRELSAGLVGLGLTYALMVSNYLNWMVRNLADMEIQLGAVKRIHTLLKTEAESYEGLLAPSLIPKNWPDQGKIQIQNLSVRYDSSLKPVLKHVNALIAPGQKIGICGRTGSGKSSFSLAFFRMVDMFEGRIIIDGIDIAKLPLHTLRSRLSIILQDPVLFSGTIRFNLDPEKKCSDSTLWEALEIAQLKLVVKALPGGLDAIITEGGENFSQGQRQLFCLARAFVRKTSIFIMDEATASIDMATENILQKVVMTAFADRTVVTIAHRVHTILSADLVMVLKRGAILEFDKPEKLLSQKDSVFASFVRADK
T1 sequence (Q61743 whole entry partner): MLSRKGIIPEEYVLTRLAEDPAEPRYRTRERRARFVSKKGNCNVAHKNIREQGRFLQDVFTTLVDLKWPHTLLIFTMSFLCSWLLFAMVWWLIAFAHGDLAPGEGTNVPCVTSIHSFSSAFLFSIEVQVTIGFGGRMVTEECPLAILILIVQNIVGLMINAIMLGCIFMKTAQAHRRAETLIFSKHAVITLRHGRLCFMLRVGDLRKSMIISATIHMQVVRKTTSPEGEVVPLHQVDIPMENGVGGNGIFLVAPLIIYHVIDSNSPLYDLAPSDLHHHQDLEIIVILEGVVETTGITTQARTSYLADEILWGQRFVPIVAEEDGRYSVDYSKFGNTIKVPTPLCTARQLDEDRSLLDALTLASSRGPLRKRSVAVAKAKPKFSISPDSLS
Procedure: Next, the pancreatic islets isolated from the mice were dispersed into single cells to prepare 1.7×10^5 cells/sample. A solution containing [^3H]-glibendamide; which was obtained by labeling glibenclamide (4-[2-(5-Chloro-2-methoxybenzoylammo)ethyl]-N-(cyclohexylcarbamoyl)benzenesulfon amide, serving as an SU agent) with ^3H, was added to these cells so that the final concentration of the [^3H]-glibenclamide was 1.85 pmol/L. Subsequently, a reagent containing the compound (7) was added (final concentration of the compound (7): 1×10^−4 to 1×10^−12 M), and incubation was performed at room temperature for 1 hour. The reaction was stopped by filtration, and the radioactivity was measured with a liquid scintillation analyzer.
Therefore, the molecular probe expressed as the formula (7) might have a SUR1 binding site.

[3] = system: pancreatic islets; assay: Three-dimensional imaging (PET) of a mouse; format: in vivo; details: 104 μCi intravenously, ddy mouse, image 10 minutes after administration, FIG. 3
Procedure: The molecular probe (compound (6)) was used to perform three-dimensional imaging of a mouse. The molecular probe (104 μCi) was administered intravenously to a 6-week-old ddy mouse (which was male and weighted 25 g) under anesthesia. Then, the three-dimensional imaging was performed with the following PET apparatus and conditions.
Imaging apparatus: eXplore Vista (product name, manufactured by General Electric Company)
Imaging method: Static Scan
Reconstruction: 2DOSEM (Dynamic OS-EM)
The image in FIG. 3 was taken 10 minutes after the administration of the molecular probe (integrating time: 10 minutes). In FIG. 3, the portion indicated by the white circle is near the pancreas.

Chain of SUR1 (Q09428 whole entry, species assumed): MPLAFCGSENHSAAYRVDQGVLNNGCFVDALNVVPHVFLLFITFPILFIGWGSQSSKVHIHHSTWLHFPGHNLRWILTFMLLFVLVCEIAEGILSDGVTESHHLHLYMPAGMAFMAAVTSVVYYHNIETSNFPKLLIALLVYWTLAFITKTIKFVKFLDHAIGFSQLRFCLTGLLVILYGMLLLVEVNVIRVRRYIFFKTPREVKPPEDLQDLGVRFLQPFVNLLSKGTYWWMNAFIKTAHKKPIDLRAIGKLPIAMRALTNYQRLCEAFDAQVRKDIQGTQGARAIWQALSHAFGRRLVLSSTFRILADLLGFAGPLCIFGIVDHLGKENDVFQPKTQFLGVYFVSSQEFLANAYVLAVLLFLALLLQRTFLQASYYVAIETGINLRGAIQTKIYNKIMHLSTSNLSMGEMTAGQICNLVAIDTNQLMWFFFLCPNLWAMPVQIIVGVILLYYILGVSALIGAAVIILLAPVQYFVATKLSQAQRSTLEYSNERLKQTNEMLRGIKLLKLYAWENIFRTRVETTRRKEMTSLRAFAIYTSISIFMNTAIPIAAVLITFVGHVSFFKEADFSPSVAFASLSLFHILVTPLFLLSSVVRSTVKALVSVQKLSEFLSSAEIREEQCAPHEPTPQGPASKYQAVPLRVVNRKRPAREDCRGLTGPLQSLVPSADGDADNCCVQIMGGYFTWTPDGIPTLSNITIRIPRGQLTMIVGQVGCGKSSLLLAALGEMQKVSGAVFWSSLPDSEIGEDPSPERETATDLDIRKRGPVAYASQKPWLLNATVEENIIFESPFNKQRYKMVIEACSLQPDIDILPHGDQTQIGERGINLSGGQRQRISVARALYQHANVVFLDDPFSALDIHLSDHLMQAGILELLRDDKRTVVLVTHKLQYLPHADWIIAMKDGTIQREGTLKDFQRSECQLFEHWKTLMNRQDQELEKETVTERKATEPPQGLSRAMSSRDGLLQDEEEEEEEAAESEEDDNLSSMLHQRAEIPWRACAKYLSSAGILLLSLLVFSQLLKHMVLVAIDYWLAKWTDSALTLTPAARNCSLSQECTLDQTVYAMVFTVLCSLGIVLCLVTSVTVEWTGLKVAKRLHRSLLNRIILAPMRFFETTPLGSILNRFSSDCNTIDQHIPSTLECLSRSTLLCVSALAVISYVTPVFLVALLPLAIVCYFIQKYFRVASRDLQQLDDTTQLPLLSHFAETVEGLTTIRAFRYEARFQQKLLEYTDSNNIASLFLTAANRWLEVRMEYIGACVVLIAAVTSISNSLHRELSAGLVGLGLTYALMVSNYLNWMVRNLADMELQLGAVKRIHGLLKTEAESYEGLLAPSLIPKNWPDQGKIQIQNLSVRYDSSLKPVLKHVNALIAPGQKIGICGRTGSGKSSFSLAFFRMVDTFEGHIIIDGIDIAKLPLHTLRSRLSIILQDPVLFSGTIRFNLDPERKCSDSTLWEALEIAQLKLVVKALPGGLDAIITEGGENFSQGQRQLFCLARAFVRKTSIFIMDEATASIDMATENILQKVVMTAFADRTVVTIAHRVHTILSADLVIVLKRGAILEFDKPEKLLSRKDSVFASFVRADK
Chain of SUR1 (Q14654 whole entry partner, species assumed): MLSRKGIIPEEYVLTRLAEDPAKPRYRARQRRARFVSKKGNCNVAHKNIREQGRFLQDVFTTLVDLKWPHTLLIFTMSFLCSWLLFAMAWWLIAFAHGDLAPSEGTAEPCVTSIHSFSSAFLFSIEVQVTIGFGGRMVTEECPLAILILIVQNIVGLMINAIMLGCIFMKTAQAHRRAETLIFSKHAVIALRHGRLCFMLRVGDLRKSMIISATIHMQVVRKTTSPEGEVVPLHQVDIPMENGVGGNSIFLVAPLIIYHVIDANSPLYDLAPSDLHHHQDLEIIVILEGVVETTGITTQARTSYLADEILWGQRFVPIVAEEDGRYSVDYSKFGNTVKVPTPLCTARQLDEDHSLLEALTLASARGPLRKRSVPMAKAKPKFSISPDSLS

Q: Which “selectivity for SUR1 in vitro relative to nateglinide” value [1] does the source give for `O=C(O)[C@H](CC(=O)N1C[C@H]2CCCC[C@H]2C1)Cc1ccccc1` [mitiglinide, (+)-monocalcium bis [(2S, 3a, 7a-cis)-α-benzylhexahydro-γ-oxo-2-isoindolinebutyrate]dihydrate] here?
A: about 100 times

Q: What does the source list for `O=C(O)[C@H](CC(=O)N1C[C@H]2CCCC[C@H]2C1)Cc1ccc(OCCF)cc1` [compound (7)]?
A: inhibition of the bond between the SU receptor and [3H]-glibenclamide ([2]; compound 1×10^−4 to 1×10^−12 M, FIG. 2): inhibited the bond between the SU receptor and the [^3H]-glibenclamide in the concentration-dependent manner; EC50 ([2]; inhibition of [3H]-glibenclamide (1.85 pmol/L) binding, mouse islet cells 1.7×10^5 cells/sample, room temperature, 1 hour): 23.5 nM

Q: With `O=C(O)C(CC(=O)N1C[C@H]2CCCC[C@H]2C1)Cc1ccc(OCC[18F])cc1` (stereo partly shown) [compound (6)] as the compound, how does the “PET imaging result (distinguishing the pancreas)” value [3] read?
A: the approximate position of the pancreas could be distinguished noninvasively
